Measured values from US8952024B2, “Herbicidal pyrimidone derivatives” (E I du Pont de Nemours and Company, priority 2009, dated 2015).

Key:
Format in all cases: in vivo
[1] = system: winter barley (Hordeum vulgare); test: Test C plant response; conditions: Postemergence, scale 0 to 100
Method in brief: (§1)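 Efficacy is a visual percent-control score (0 none, 100 complete), judged against controls 14 days after application. Compounds go on in a non-phytotoxic solvent carrier with surfactant. A dash marks a missing result.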

[2] = system: canarygrass (Phalaris minor); test: Test C plant response; conditions: Postemergence, scale 0 to 100
Method in brief: as §1

[3] = system: field poppy (Papaver rhoeas); test: Test C plant response; conditions: Postemergence, scale 0 to 100
Method in brief: as §1

[4] = system: spring wheat (Triticum aestivum); test: Test C plant response; conditions: Postemergence, scale 0 to 100
Method in brief: as §1

[5] = system: field violet (Viola arvensis); test: Test C plant response; conditions: Postemergence, scale 0 to 100
Method in brief: as §1

[6] = system: Italian ryegrass (Lolium multiflorum); test: Test C plant response; conditions: Postemergence, scale 0 to 100
Method in brief: as §1

[7] = system: buckwheat (wild buckwheat, Polygonum convolvulus); test: Test C plant response; conditions: Postemergence, scale 0 to 100
Method in brief: as §1

[8] = system: deadnettle (henbit deadnettle, Lamium amplexicaule); test: Test C plant response; conditions: Postemergence, scale 0 to 100
Method in brief: as §1

[9] = system: wild radish (Raphanus raphanistrum); test: Test C plant response; conditions: Postemergence, scale 0 to 100
Method in brief: as §1

[10] = system: blackgrass (Alopecurus myosuroides); test: Test C plant response; conditions: Postemergence, scale 0 to 100
Method in brief: as §1

[11] = system: galium (catchweed bedstraw, Galium aparine); test: Test C plant response; conditions: Postemergence, scale 0 to 100
Method in brief: as §1

[12] = system: Russian thistle (Salsola iberica); test: Test C plant response; conditions: Postemergence, scale 0 to 100
Method in brief: as §1

[13] = system: winter wheat (Triticum aestivum); test: Test C plant response; conditions: Postemergence, scale 0 to 100
Method in brief: as §1

[14] = system: goosegrass (Eleusine indica); test: Test B pre-/postemergence plant response; conditions: Preemergence, 62 g ai/ha; scale 0 to 100 (0 no effect, 100 complete control)

## 3-cyclohexyl-5-[(2-hydroxy-6-oxo-1-cyclohexen-1-yl)carbonyl]-2-phenyl-4(3H)-pyrimidinone [Compound 128]
[1]; 31 g ai/ha
  Plant response rating: Barley, Winter: 20
[1]; 16 g ai/ha
  Plant response rating: Barley, Winter: 0
[1]; 62 g ai/ha
  Plant response rating: Barley, Winter: 40
[1]; 125 g ai/ha
  Plant response rating: Barley, Winter: 60
[2]; 31 g ai/ha
  Plant response rating: Canarygrass: 5
[2]; 16 g ai/ha
  Plant response rating: Canarygrass: 5
[2]; 62 g ai/ha
  Plant response rating: Canarygrass: 10
[2]; 125 g ai/ha
  Plant response rating: Canarygrass: 10
[3]; 31 g ai/ha
  Plant response rating: Field Poppy: 30
[3]; 16 g ai/ha
  Plant response rating: Field Poppy: 20
[3]; 62 g ai/ha
  Plant response rating: Field Poppy: 40
[3]; 125 g ai/ha
  Plant response rating: Field Poppy: 70
[4]; 31 g ai/ha
  Plant response rating: Wheat, Spring: 20
[4]; 16 g ai/ha
  Plant response rating: Wheat, Spring: 5
[4]; 62 g ai/ha
  Plant response rating: Wheat, Spring: 35
[4]; 125 g ai/ha
  Plant response rating: Wheat, Spring: 40
[5]; 31 g ai/ha
  Plant response rating: Field Violet: 0
[5]; 16 g ai/ha
  Plant response rating: Field Violet: 0
[5]; 62 g ai/ha
  Plant response rating: Field Violet: 35
[5]; 125 g ai/ha
  Plant response rating: Field Violet: 35
[6]; 31 g ai/ha
  Plant response rating: Ryegrass, Italian: 5
[6]; 16 g ai/ha
  Plant response rating: Ryegrass, Italian: 0
[6]; 62 g ai/ha
  Plant response rating: Ryegrass, Italian: 30
[6]; 125 g ai/ha
  Plant response rating: Ryegrass, Italian: 30
[7]; 31 g ai/ha
  Plant response rating: Buckwheat, Wild: 70
[7]; 16 g ai/ha
  Plant response rating: Buckwheat, Wild: 65
[7]; 62 g ai/ha
  Plant response rating: Buckwheat, Wild: 80
[7]; 125 g ai/ha
  Plant response rating: Buckwheat, Wild: 80
[8]; 31 g ai/ha
  Plant response rating: Deadnettle: 98
[8]; 16 g ai/ha
  Plant response rating: Deadnettle: 95
[8]; 62 g ai/ha
  Plant response rating: Deadnettle: 100
[8]; 125 g ai/ha
  Plant response rating: Deadnettle: 100
[9]; 31 g ai/ha
  Plant response rating: Radish, Wild: 95
[9]; 16 g ai/ha
  Plant response rating: Radish, Wild: 95
[9]; 62 g ai/ha
  Plant response rating: Radish, Wild: 95
[9]; 125 g ai/ha
  Plant response rating: Radish, Wild: 95
[10]; 31 g ai/ha
  Plant response rating: Blackgrass: 20
[10]; 16 g ai/ha
  Plant response rating: Blackgrass: 20
[10]; 62 g ai/ha
  Plant response rating: Blackgrass: 35
[10]; 125 g ai/ha
  Plant response rating: Blackgrass: 35
[11]; 31 g ai/ha
  Plant response rating: Galium: 30
[11]; 16 g ai/ha
  Plant response rating: Galium: 20
[11]; 62 g ai/ha
  Plant response rating: Galium: 65
[11]; 125 g ai/ha
  Plant response rating: Galium: 65
[12]; 31 g ai/ha
  Plant response rating: Russian Thistle: 80
[12]; 16 g ai/ha
  Plant response rating: Russian Thistle: 80
[12]; 62 g ai/ha
  Plant response rating: Russian Thistle: 95
[12]; 125 g ai/ha
  Plant response rating: Russian Thistle: 95
[13]; 31 g ai/ha
  Plant response rating: Wheat, Winter: 30
[13]; 16 g ai/ha
  Plant response rating: Wheat, Winter: 0
[13]; 62 g ai/ha
  Plant response rating: Wheat, Winter: 30
[13]; 125 g ai/ha
  Plant response rating: Wheat, Winter: 35
[14]
  Plant response rating, Goosegrass: 95

## Cc1cc(C)cc(-n2c(-c3ccccc3)ncc(C(=O)C3=C(O)CCCC3=O)c2=O)c1 [Compound 33]
[1]; 31 g ai/ha
  Plant response rating: Barley, Winter: 0
[1]; 16 g ai/ha
  Plant response rating: Barley, Winter: 0
[1]; 62 g ai/ha
  Plant response rating: Barley, Winter: 0
[1]; 125 g ai/ha
  Plant response rating: Barley, Winter: 5
[2]; 31 g ai/ha
  Plant response rating: Canarygrass: 0
[2]; 16 g ai/ha
  Plant response rating: Canarygrass: 0
[2]; 62 g ai/ha
  Plant response rating: Canarygrass: 5
[2]; 125 g ai/ha
  Plant response rating: Canarygrass: 5
[3]; 31 g ai/ha
  Plant response rating: Field Poppy: 80
[3]; 16 g ai/ha
  Plant response rating: Field Poppy: 80
[3]; 62 g ai/ha
  Plant response rating: Field Poppy: 90
[3]; 125 g ai/ha
  Plant response rating: Field Poppy: 98
[4]; 31 g ai/ha
  Plant response rating: Wheat, Spring: 10
[4]; 16 g ai/ha
  Plant response rating: Wheat, Spring: 10
[4]; 62 g ai/ha
  Plant response rating: Wheat, Spring: 10
[4]; 125 g ai/ha
  Plant response rating: Wheat, Spring: 10
[5]; 31 g ai/ha
  Plant response rating: Field Violet: 90
[5]; 16 g ai/ha
  Plant response rating: Field Violet: 65
[5]; 62 g ai/ha
  Plant response rating: Field Violet: 95
[5]; 125 g ai/ha
  Plant response rating: Field Violet: 95
[6]; 31 g ai/ha
  Plant response rating: Ryegrass, Italian: 0
[6]; 16 g ai/ha
  Plant response rating: Ryegrass, Italian: 0
[6]; 62 g ai/ha
  Plant response rating: Ryegrass, Italian: 10
[6]; 125 g ai/ha
  Plant response rating: Ryegrass, Italian: 10
[7]; 31 g ai/ha
  Plant response rating: Buckwheat, Wild: 65
[7]; 16 g ai/ha
  Plant response rating: Buckwheat, Wild: 60
[7]; 62 g ai/ha
  Plant response rating: Buckwheat, Wild: 75
[7]; 125 g ai/ha
  Plant response rating: Buckwheat, Wild: 75
[8]; 31 g ai/ha
  Plant response rating: Deadnettle: 98
[8]; 16 g ai/ha
  Plant response rating: Deadnettle: 95
[8]; 62 g ai/ha
  Plant response rating: Deadnettle: 98
[8]; 125 g ai/ha
  Plant response rating: Deadnettle: 100
[9]; 31 g ai/ha
  Plant response rating: Radish, Wild: 95
[9]; 16 g ai/ha
  Plant response rating: Radish, Wild: 90
[9]; 62 g ai/ha
  Plant response rating: Radish, Wild: 95
[9]; 125 g ai/ha
  Plant response rating: Radish, Wild: 98
[10]; 31 g ai/ha
  Plant response rating: Blackgrass: 5
[10]; 16 g ai/ha
  Plant response rating: Blackgrass: 0
[10]; 62 g ai/ha
  Plant response rating: Blackgrass: 35
[10]; 125 g ai/ha
  Plant response rating: Blackgrass: 35
[11]; 31 g ai/ha
  Plant response rating: Galium: 40
[11]; 16 g ai/ha
  Plant response rating: Galium: 35
[11]; 62 g ai/ha
  Plant response rating: Galium: 50
[11]; 125 g ai/ha
  Plant response rating: Galium: 60
[12]; 31 g ai/ha
  Plant response rating: Russian Thistle: 80
[12]; 16 g ai/ha
  Plant response rating: Russian Thistle: 80
[12]; 62 g ai/ha
  Plant response rating: Russian Thistle: 90
[12]; 125 g ai/ha
  Plant response rating: Russian Thistle: 90
[13]; 31 g ai/ha
  Plant response rating: Wheat, Winter: 0
[13]; 16 g ai/ha
  Plant response rating: Wheat, Winter: 0
[13]; 62 g ai/ha
  Plant response rating: Wheat, Winter: 5
[13]; 125 g ai/ha
  Plant response rating: Wheat, Winter: 5
[14]
  Plant response rating, Goosegrass: 85
